Tests used:
lymph cells = details: concanavalin A; cited from earlier work
IDH4 cells = assay type: cell-based, human; details: 72 hours, FIG. 25
Description: IDH4 cells, that express endogenous glucocorticoid receptors, were produced by transfecting human fibroblasts with a plasmid containing the MMTV-long terminal repeat driving the SV40 large T antigen. Since extended growth of these cells is dependent on expression of the large T antigen, these cells require exogenous glucocorticoid to maintain proliferation.
[^3 H]-Thymidine was present for the last 16 h. Data represent the mean k inhibition of [^3 H]-thymidine incorporation of three replicate determinations of three separate experiments.

[1] = tested on: human GR (COS-7 cells, MMTV-luciferase); assay: GR mediated MMTV-luciferase gene activation; assay type: cell-based; details: for GR-mediated target gene activation: purified TwHF compounds
Description: Cell transfections and assays of GR mediated gene activation. COS-7 cells were maintained in culture in DMEM-10% bovine calf serum. […] Cells were plated at 10^6 cells per 10 cm plate. Twenty-four hours later, the cells were transfected with 500 ng pRShGrα, a GR expression vector (obtained from the Salk Institute, La Jolla, Calif.) and 10 μg of pMMTV-luciferase, a synthetic reporter gene. However, other expression vectors and synthetic reporter genes available to those of skill in the art may be used for transfection. The vector pMMTV-luciferase contains the luciferase gene under regulatory control of glucocorticoid-inducible elements in the MMTV-long terminal repeat. Cells were transfected using the calcium-phosphate precipitation technique (mammalian transfection kit, Stratagene, La Jolla, Calif.). […] Twenty-four hours later, the cells were washed, harvested, and lysates prepared by three cycles of freeze/thawing. The lysates were cleared by centrifugation at 12,000×g for 5 minutes; aliquots were assayed for protein content and equal amounts of proteins were used for luciferase assays.
COS-7 cells were transfected with a human GR expression vector and the MMTV-luciferase reporter gene construct. A parallel set of plates was transfected with the constitutively active RSV-luciferase construct. […] Cells were lysed after 24 hours and assayed for luciferase activity.

[2] = tested on: PGE2 production by human monocytes (COX-2); assay: Endotoxin induced PGE2 production by monocytes (COX-2); assay type: cell-based; details: LPS 10 μg/ml, 18 hours, FIG. 29
Description: After 18 hours of incubation, cell-free supernatants were collected and assayed for PGE2 content with a radioimmunoassay kit (Amersham), as described by the manufacturer. Data represent the mean of two replicate determinations of two separate experiments. […] Human monocytes produce prostaglandinE2 (PGE2) when stimulated with bacterial endotoxin.

T cells [3] = assay: PHA-induced T cell proliferation, wilforonide (924); assay type: cell-based, human; details: at the level of ngs
Text: The molecular groups responsible for the immune suppressive function of these compounds are unknown, however, the core structure of diterpenoids which may be related to their activity consists of an α-β-unsaturated 5 element lactone which can be identified by Kedde reagents. HPLC was used to fractionate the ethyl acetate extract of TwHF and the Kedde reagents were employed to trace the fractions. Then, the effect of selected fractions on the in vitro IL-2 production and [^3 H]-thymidine incorporation by PHA-activated T cells was determined. Fractions that inhibit these T cell functions were selected and the chromatographic pattern was identified with HPLC. One fraction was further purified with HPLC and crystallized repeatedly; a pure, crystallized compound was obtained and designated "924".
[^3 H]-thymidine was added for the last 14 hours of culture. Each concentration was run in quadruplicate (4 times) and the results for each concentration averaged to provide a mean. The mean cpm×10^3 values were combined and expressed as a percent of T cell inhibition.
or absence of the indicated concentrations of wilforonide for 3 days.
[^3 H]-Thymidine was added for the last 14 hours. Data are from 4
independent experiments.

Fibroblasts = assay type: cell-based, human; details: triptolide 10 ng/ml
Description: The cells were assayed for cell viability by using a cytoflowmeter (FACSCAN) after the cells were stained with propidium iodine.

mouse spleen cells = details: high concentrations; cited from earlier work
B cells = assay: SA-induced B cell DNA synthesis / Ig production, triptolide; assay type: cell-based, human; details: for SA-induced B cell DNA synthesis (3H-thymidine incorporation): control 7,900
Text: Other components of Tripterygium wilfordii Hook F include: […]

T cells [4] = assay: PHA-induced T cell DNA synthesis, triptolide; assay type: cell-based, human; details: for PHA-induced T cell DNA synthesis (3H-thymidine incorporation): control 93,400

| SMILES | Lymph cell proliferation (lymph cells) | Dexamethasone dependent growth of IDH4 cells (IDH4 cells) | GR-mediated target gene activation [1] | Endotoxin induced PGE2 production / COX-2 induction [2] | Immunosuppressive action (T cells [3]) | other results |
| --- | --- | --- | --- | --- | --- | --- |
| CC(C)[C@]12O[C@H]1[C@@H]1O[C@@]13[C@@]1(C)CCC4=C(COC4=O)[C@@H]1C[C@@H]1O[C@@]13C2=O [Triptonide, triptonide, reference compound] | inhibit the proliferation of lymph cells induced by concanavalin A |  |  |  |  |  |
| CC(C)c1ccc2c(c1O)CC[C@H]1C3=C(CC[C@]21C)C(=O)OC3 [Triptophenolide, triptophenolide] |  | less active and its activity was not generally correlated with dosage | far less potent |  |  | Immunosuppressive activity relative to triptolide or tripdiolide [1]: much less immunosuppressive than triptolide or tripdiolide |
| CC#C[C@]1(O)CC[C@H]2[C@@H]3CCC4=CC(=O)CCC4=C3[C@@H](c3ccc(N(C)C)cc3)C[C@@]21C [RU486, reference compound] |  |  |  | inhibits endotoxin-induced PGE2 production by human peripheral blood monocytes, however, it is not as effective as the TwHF extract at lower concentrations |  |  |
| CC(C)[C@]12O[C@H]1[C@@H]1O[C@]13[C@]1(O[C@H]1C[C@H]1C4=C(C(=O)OC4)[C@@H](O)C[C@@]13C)[C@@H]2O [Tripdiolide, tripdiolide] |  | inhibited dexamethasone dependent growth of IDH4 cells in a concentration dependent manner | inhibited target gene activation by GR | inhibited by the extract of TwHF and its purified immunosuppressive component, tripdiolide | potent immunosuppressive action |  |
| CC(C)[C@]12O[C@H]1[C@@H]1O[C@]13[C@]1(O[C@H]1C[C@H]1C4=C(CC[C@@]13C)C(=O)OC4)[C@@H]2O [Triptolide, triptolide] | inhibit the proliferation of lymph cells induced by concanavalin A |  | inhibited target gene activation by GR |  | potent immunosuppressive action | Toxicity to fibroblasts (Fibroblasts): toxic to fibroblasts; Lymphocyte proliferation and IL-2 production (mouse spleen cells): suppress B and T lymphocyte proliferation and interleukin-2 production by mouse spleen cells; SA-induced B cell DNA synthesis (3H-thymidine incorporation) (B cells; 0.1 ng/ml): 2,000 CPM; SA-induced B cell DNA synthesis (3H-thymidine incorporation) (B cells; 1.0 ng/ml): 100 CPM; B lymphocyte proliferation (B cells; 0.1-1.0 ng/ml): inhibited proliferation of both T and B lymphocytes profoundly; Immunoglobulin production, mitogen stimulated B lymphocytes (B cells; in vitro): inhibited the in vitro production of immunoglobulin from mitogen stimulated human B lymphocytes at comparably small concentrations; PHA-induced T cell DNA synthesis (3H-thymidine incorporation) (T cells [4]; 0.1 ng/ml): 24,200 CPM; PHA-induced T cell DNA synthesis (3H-thymidine incorporation) (T cells [4]; 1.0 ng/ml): 100 CPM; T lymphocyte proliferation (T cells [4]; 0.1-1.0 ng/ml): inhibited proliferation of both T and B lymphocytes profoundly |
